The target in experiment [1] is muscarinic receptors. In kind it is binding, Hooded Lister rats. The settings on record: 0.27 nM 3H-QNB, rat cerebral cortex homogenate, 37° C., 30 min, tested as the oxalate salt.
Experiment [2] concerns the target muscarinic receptors. The experiment can be described thus: Radioligand binding: displacement of the muscarinic agonist 3H-Oxotremorine-M (3H-OXO-M) from rat cerebral cortex. Set-up: species or system Hooded Lister rats. The conditions noted are these: 2 nM 3H-OXO-M, rat cerebral cortex homogenate, 2 mM magnesium chloride, 37° C., 30 min, tested as the oxalate salt.

Counter-ions that a name gives are not always drawn. Like-named read-outs stand apart in the source and are kept apart here.

As a reminder, the IC50 is the concentration at which inhibition is half-maximal.

As to `CCc1noc([C@@H]2CN3CC[C@@H]2C3)n1` (relative stereo) [Example E1, (±) exo-3-(3-Ethyl-1,2,4-oxadiazol-5-yl)-1-azabicyclo-[2.2.1]heptane oxalate salt], the half-inhibitory concentration (IC50) came to 940 nM in experiment [1] and 31 nM in experiment [2].
For `CCc1noc(C2CN3CCC2C3)n1` (single isomer, unassigned; (+)) [Example E2, (+) exo-3-(3-Ethyl-1,2,4-oxadiazol-5-yl)-1-azabicyclo-[2.2.1]heptane oxylate salt], in that order: 1590 nM and 26 nM.
Regarding `CCc1noc(C2CN3CCC2C3)n1` (single isomer, unassigned; (-)) [Example E3, (-) exo-(3-Ethyl-1-1,2,4-oxadiazol-5-y1)-1-azabicyclo-[2.2.1]heptane oxalate salt], the values for the IC50 in experiment [1] (oxalate salt) and in experiment [2] (oxalate salt) were 725 nM and 36 nM, respectively.

The record behind these values is patent publication US5043342A (priority 1988, dated 1991).
